Experiment [1] deals with PI3Kα H1047R mutation cell line T-47D. As to the kind of experiment: Cell Proliferation IC50 Assay (CellTiter-Glo), T-47D. The following applies: Homo sapiens, T47D (H1047R), 72 hours, CellTiter-Glo, read-out: IC50 (μM) T47D. The class given is cell-based. The source says: (§1) PI3Kα H1047R mutation cell line T-47D and MDA-MB-453, E545K mutation cell line MDA-MB-361 and PI3Kα wide type cell line SK-BR-3 were purchased from Cobioer Biotech (cat. no CBP60397, CBP60386, CBP60383 and CBP60413 respectively). The CellTiter-Glo Direct Cell Proliferation Assay Kit was purchased from Prornega (cat. No. G7573)
(§2) For cell proliferation assay in each cell line: • a. Prepare complete medium (R PMI 1640, DMEM or McCoys): Add FBS and appropriate additives according to the information sheet provided by the vendor. Mix gently. • b. Prepare single cell suspension and count the cell numbers and adjust cells to appropriate density. • c. Add 80 μL of cell suspension to 96-well opaque-walled clear bottom plates according to the planned plate layout and place the plates in the CO2 incubator overnight. • d. Prepare intermediate plate: 10 μl of diluted test compounds or staurosporine solution (200×) is added to a 96 deep well plate. Then 390 μl of culture medium without FBS is added to the respective wells. • e. Transfer 20 μL of the solutions from the above intermediate plate to the wells of the plate prepared containing 80 μL of the culture medium and cells. The total dilution is 200 folds. • f. The cells were then incubated at 5% CO2, 37° C. for 72 hours. • g. Equilibrate the plate and its contents to room temperature for approximately 30 minutes. • h. Add 100 μL of CellTiter-Glo reagent to the assay plate • i. Mix contents for 10 minutes on an orbital shaker to induce cell lysis. • j. Allow the plate to incubate at room temperature for 10 minutes to stabilize luminescent signal, • k. Paste the clear bottom with white back seal and record luminescence with Varioskan LUX plate reader.
(§3) Inhibition % and IC50 value were calculated by the formula described below: […]

Experiment [2] concerns PI3Kα wide type cell line SK-BR-3. As to the kind of experiment: Cell Proliferation IC50 Assay (CellTiter-Glo), SK-BR-3. The class given is cell-based. The following applies: Homo sapiens; SK-BR-3 (PI3Kα wild type), 72 hours, CellTiter-Glo; read-out: IC50 (μM) SK-BR-3.
Description: as §1, §2, §3
(In general: Cellular ATP, detected with luciferase, serves as a proxy for viable cell number.)

Where two headings read alike, the source gives them in different places.

As to `Cc1cc(C(C)Nc2ccccc2C(=O)O)c2oc(-c3cc4n(n3)CCN(C)C4=O)c(C)c(=O)c2c1` (centres unmarked) [Example 73, 2-((1-(3,6-dimethyl-2-(5-methyl-4-oxo-4,5,6,7-tetrahydropyrazolo[1,5-a]pyrazin-2-yl)-4-oxo-4H-chromen-8-yl)ethyl)amino)benzoic acid], the IC50 (commonly the midpoint of a concentration-inhibition curve) was 2.01 µM in experiment [1] (T47D, 72 h) and above 10 µM in experiment [2].

For `Cc1cc(C(C)Nc2ccccc2C(=O)O)c2oc(-c3cc4cnccc4[nH]3)cc(=O)c2c1` (centres unmarked) [Example 116], the IC50 in experiment [1] (T47D, 72 h) is 0.97 µM; in experiment [2], above 10 µM.

Take `Cc1cc(C(C)Nc2ccccc2C(=O)O)c2oc(-c3ccc(N4CCNCC4)cc3)cc(=O)c2c1` (centres unmarked) [Example 41, 2-((1-(6-methyl-4-oxo-2-(4-(piperazin-1-yl)phenyl)-4H-chromen-8-yl)ethyl)amino)benzoic acid]: the IC50 in experiment [1] (T47D, 72 h) is 1.43 µM; in experiment [2], above 10 µM.

Regarding `Cc1cc([C@@H](C)Nc2ccccc2C(=O)O)c2oc(-c3ccc(N4CC[C@H](N(C)C)C4)cc3)c(C)c(=O)c2c1` [Example 169, 2-(((R)-1-(2-(4-((S)-3-(dimethylamino)pyrrolidin-1-yl)phenyl)-3,6-dimethyl-4-oxo-4H-chromen-8-yl)ethyl)amino)benzoic acid], the IC50 in experiment [1] (T47D, 72 h) was 0.11 µM; in experiment [2], above 10 µM.

Turning to `Cc1cc([C@@H](C)Nc2ccccc2C(=O)O)c2oc(-c3ccc(OCCN(C)C)cc3)cc(=O)c2c1` [Example 166, (R)-2-((1-(2-(4-(2-(dimethylamino)ethoxy)phenyl)-6-methyl-4-oxo-4H-1-chromen-8-yl)ethyl)amino)benzoic acid], the 50% inhibitory concentration (IC50) in experiment [1] (T47D, 72 h) is 0.23 µM; in experiment [2], above 10 µM.

On to `Cc1cc([C@@H](C)Nc2ccc(Cl)nc2C(=O)O)c2oc(-c3ccc(CN4CCN(C)CC4)cc3)c(C)c(=O)c2c1` [Example 189, (R)-6-chloro-3-((1-(3,6-dimethyl-2-(4-((4-methylpiperazin-1-yl)methyl)phenyl)-4-oxo-4H-chromen-8-yl)ethyl)amino)picolinic acid], for which the IC50 in experiment [1] (T47D, 72 h) is 0.11 µM; in experiment [2], above 10 µM.

With `CC(=O)N1CCN(C(=O)c2ccc(-c3oc4c([C@@H](C)Nc5ccccc5C(=O)O)cc(C)cc4c(=O)c3C)cc2)CC1` [Example 139, (R)-2-((1-(2-(4-(4-acetylpiperazine-1-carbonyl)phenyl)-3,6-dimethyl-4-oxo-4H-chromen-8-yl)ethyl)amino)benzoic acid], the IC50 was 1.04 µM in experiment [1] (T47D, 72 h) and above 10 µM in experiment [2].

On to `Cc1cc([C@@H](C)Nc2ccccc2C(=O)O)c2oc(-c3ccc(OCCN4CCOCC4)cc3)c(C)c(=O)c2c1` [Example 141, (R)-2-((1-(3,6-dimethyl-2-(4-(2-morpholinoethoxy)phenyl)-4-oxo-4H-chromen-8-yl)ethyl)amino)benzoic acid], for which the IC50 in experiment [1] (T47D, 72 h) is 0.044 µM; in experiment [2], above 10 µM.

Regarding `Cc1cc(C(C)Nc2ccccc2-c2nc(=O)o[nH]2)c2oc(-c3ccc4nn(C)cc4c3)c(C)c(=O)c2c1` (centres unmarked) [Example 177, 3-(2-((1-(3,6-dimethyl-2-(2-methyl-2H-indazol-5-yl)-4-oxo-4H-chromen-8-yl)ethyl)amino)phenyl)-1,2,4-oxadiazol-5(2H)-one], the IC50 in experiment [1] (T47D, 72 h) was 0.31 µM; in experiment [2] it was above 10 µM.

Regarding `CCn1cc2cc(-c3cc(=O)c4cc(C)cc(C(C)Nc5ccccc5C(=O)O)c4o3)ccc2n1` (centres unmarked) [Example 93, 2-((1-(2-(2-ethyl-2H-indazol-5-yl)-6-methyl-4-oxo-41H-chromen-8-yl)ethyl)amino)benzoic acid], the IC50 was 0.31 µM in experiment [1] (T47D, 72 h) and above 10 µM in experiment [2].

Take `Cc1cc(C(C)Nc2ccccc2C(=O)O)c2oc(-c3cnc4nn(C)cc4c3)cc(=O)c2c1` (centres unmarked) [Example 82, 2-((1-(6-methyl-2-(2-methyl-2H-pyrazolo[3,4-b]pyridin-5-yl)-4-oxo-41H-chromen-8-yl)ethyl)amino)benzoic acid]: the 50% inhibitory concentration (IC50) in experiment [1] (T47D, 72 h) is above 10 µM; in experiment [2] it was above 10 µM.

In the case of `Cc1cc(C(C)Nc2ccccc2C(=O)O)c2nc(-c3ccc4nn(C)cc4c3)cc(=O)n2c1` (centres unmarked) [Example 108, 2-((1-(7-methyl-2-(2-methyl-2H-indazol-5-yl)-4-oxo-4H-pyrido[1,2-a]pyrimidin-9-yl)ethyl)amino)benzoic acid], the IC50 is 0.84 µM in experiment [1] (T47D, 72 h) and above 10 µM in experiment [2].

On to `COC(=O)c1ccccc1N[C@H](C)c1cc(C)cc2c(=O)c(C)c(-c3ccc(-c4cnn(C)c4)nc3)oc12` [Example 190, methyl (R)-2-((1-(3,6-dimethyl-2-(6-(1-methyl-1H-pyrazol-4-yl)pyridin-3-yl)-4-oxo-4H-chromen-8-yl)ethyl)amino)benzoate], for which the IC50 in experiment [1] (T47D, 72 h) amounted to 0.27 µM; in experiment [2], 6.05 µM.

Consider `Cc1cc(C(C)Nc2ccccc2C(=O)O)c2oc(-c3ccc4cnccc4c3)cc(=O)c2c1` (centres unmarked) [Example 36, 2-((1-(2-(isoquinolin-6-yl)-6-methyl-4-oxo-4H-chromen-8-yl)ethyl)amino)benzoic acid], for which the IC50 in experiment [1] (T47D, 72 h) was 0.2 µM; in experiment [2], above 10 µM.

For `Cc1cc(C(C)Nc2ccccc2C(=O)O)c2oc(-c3ccc(-n4ccnc4)cc3)cc(=O)c2c1` (centres unmarked) [Example 143, 2-((1-(2-(4-(1H-imidazol-1-yl)phenyl)-6-methyl-4-oxo-4H-chromen-8-yl)ethyl)amino)benzoic acid], the IC50 in experiment [1] (T47D, 72 h) was 0.25 µM; in experiment [2] it was above 10 µM.

Regarding `Cc1cc([C@@H](C)Nc2ccccc2C(=O)NS(=O)(=O)C2CC2)c2oc(-c3ccc4nn(C)cc4c3)cc(=O)c2c1` [Example 157, (R)—N-(cyclopropylsulfonyl)-2-((1-(6-methyl-2-(2-methyl-2H-indazol-5-yl)-4-oxo-4H-chromen-8-yl)ethyl)amino)benzamide], the IC50 is 3.43 µM in experiment [1] (T47D, 72 h) and above 10 µM in experiment [2].

On to `Cc1cc([C@H](C)Nc2ccccc2C(=O)O)c2oc(-c3ccc4nn(C)cc4c3)c(C)c(=O)c2c1` (single isomer, unassigned) [Example 49B], for which the IC50 in experiment [1] (T47D, 72 h) is 7.24 µM; in experiment [2], above 10 µM.

Regarding `Cc1cc([C@@H](C)Nc2ccc(Cl)nc2C(=O)O)c2oc(-c3ccc(-c4cnn(C)c4)nc3)c(C)c(=O)c2c1` [Example 186, (R)-6-chloro-3-((1-(3,6-dimethyl-2-(6-(1-methyl-1H-pyrazol-4-yl)pyridin-3-yl)-4-oxo-4H-chromen-8-yl)ethyl)amino)picolinic acid], the IC50 came to 0.16 µM in experiment [1] (T47D, 72 h) and 8.68 µM in experiment [2].

Take `Cc1cc([C@@H](C)Nc2ccccc2C(=O)O)c2oc(-c3ccc(-c4cn(C)cn4)cc3)c(C)c(=O)c2c1` [Example 162, (R)-2-((1-(3,6-dimethyl-2-(4-(1-methyl-1H-imidazol-4-yl)phenyl)-4-oxo-4H-chromen-8-yl)ethyl)amino)benzoic acid]: the IC50 was 0.23 µM in experiment [1] (T47D, 72 h) and above 10 µM in experiment [2].

With `Cc1cc(C(C)Nc2ccccc2C(=O)O)c2oc(-c3cc4cn(C)nc4cn3)cc(=O)c2c1` (centres unmarked) [Example 83, 2-((1-(6-methyl-2-(2-methyl-2H-pyrazolo[3,4-c]pyridin-5-yl)-4-oxo-41H-chromen-8-yl)ethyl)amino)benzoic acid], the IC50 in experiment [1] was 0.38 µM; in experiment [2], above 10 µM.

As to `Cc1cc(C(C)Nc2ccccc2C(=O)O)c2oc(-c3cc4n(c3)CCN(C)C4=O)c(C)c(=O)c2c1` (centres unmarked) [Example 72, 2-((1-(3,6-dimethyl-2-(2-methyl-1-oxo-1,2,3,4-tetrahydropyrrolo[1,2-a]pyrazin-7-yl)-4-oxo-4H-chromen-8-yl)ethyl)amino)benzoic acid], the concentration for half-maximal inhibition (IC50) in experiment [1] (T47D, 72 h) is 5.08 µM; in experiment [2], above 10 µM.

Consider `Cc1cc(C(C)Nc2ccccc2C(=O)O)c2oc(-c3ccc(N4CCOCC4)nc3)c(C)c(=O)c2c1` (centres unmarked) [Example 81, 2-((1-(3,6-dimethyl-2-(6-morpholinopyridin-3-yl)-4-oxo-4H-chromen-8-yl)ethyl)amino)benzoic acid], for which the IC50 in experiment [1] (T47D, 72 h) is 0.15 µM; in experiment [2], above 10 µM.

On to `Cc1cc([C@@H](C)Nc2ccccc2C(=O)O)c2oc(-c3ccc(Cn4cncn4)cc3)c(C)c(=O)c2c1` [Example 136, (R)-2-((1-(2-(4-((1H-1,2,4-triazol-1-yl)methyl)phenyl)-3,6-dimethyl-4-oxo-4H-chromen-8-yl)ethyl)amino)benzoic acid], for which the IC50 in experiment [1] (T47D, 72 h) was above 10 µM; in experiment [2] it was above 10 µM.

Turning to `Cc1cc([C@@H](C)Nc2ccccc2C(=O)O)c2oc(-c3ccc(-c4cnn(C)c4)nc3)cc(=O)c2c1` [Example 164, (R)-2-((1-(6-methyl-2-(6-(1-methyl-1H-pyrazol-4-yl)pyridin-3-yl)-4-oxo-4H-chromen-8-yl)ethyl)amino)benzoic acid], the IC50 in experiment [1] (T47D, 72 h) is 0.38 µM; in experiment [2], above 10 µM.

As to `Cc1cc([C@H](C)Nc2ccccc2C(=O)O)c2oc(-c3ccc(-c4cnn(C)c4)cc3)cc(=O)c2c1` (single isomer, unassigned) [Example 95B], the IC50 is 0.99 µM in experiment [1] (T47D, 72 h) and above 10 µM in experiment [2].
